Calls of active or inactive are those of the source.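 Rule for the calls: active = chemicals shown by follow-up kinetic tests to compete for rat estrogen receptor sites, with a measured inhibition constant; inconclusive = some binding seen but constant unmeasurable owing to poor solubility; inactive = no binding up to top dose, or binding unconfirmed.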
Target: Estrogen receptor (Rattus norvegicus) (UniProt P06211)
Assay: DSSTox (KIERBL) EPA Estrogen Receptor Ki Binding Study (Laws et al.) Database
Details: Rat uterine cytosol ER, 3H-estradiol competitive binding
Method: This study was conducted by EPA researchers to evaluate the validity of the rat uterine cytosolic (RUC) estrogen receptor (ER) competitive binding assay for use in the Endocrine Disruption Screening Program (EDSP). The assay measures the ability of radiolabeled 17-beta-estradiol (3H-E2) to bind with RUC ER in the presence of increasing concentrations of a test chemical. The goal is to employ this in vitro assay as a 1st tier screening tool for assessing the potential of structurally diverse environmental chemicals to bind to the ER, as well as to support research efforts to develop computational models to predict ER binding. A distinguishing feature of the present study was the use of secondary experimental analysis of binding curves and determination of Ki values to confirm that measured IC50 values corresponded to true positive results. The study concluded that a number of experimental conditions can confound interpretation of IC50 values obtained from the RUC ER-binding assay data and lead to false positive results. In particular, some chemical treatments likely alter the stability of the assay by changing the buffer pH, denaturing ER, or disrupting the ER binding kinetics. […] The chemicals used in this study were selected as part of a validation test for two Quantitative Structure-Activity Relationship (QSAR) models designed to predict ER binding [Fed. Reg. 67(250), 79618, Dec. 30, 2002]. Several hundred chemicals were initially screened, including approximately 100 chemicals selected from among the High Production Volume (HPV) chemicals included in EPA's Toxic Substances Control Act (TSCA) inventory that were predicted to be positive for ER binding, with the rest selected at random from the TSCA inventory. All chemicals were initially tested in ER competitive binding assays by Battelle Pacific Northwest Laboratories, Richland, Washington [EPA Contract Number 68-W-99-033, Task 6]. Approximately 50 chemicals produced binding curves that: (1) strongly implied competitive inhibition of ER binding, or (2) produced partial curves or irregular (non-sigmoid) binding curves. These chemicals were further evaluated in an ER competitive binding assay with secondary analysis to confirm true competitive inhibition and to determine an experimental Ki [U.S. EPA Contract 3D-5967-NTEX]. The results of RUC ER screening for these 50 structurally diverse chemicals, for which secondary confirmatory analyses were performed, were published in the Main Citation (Laws et al., 2006, Tox. Sci. 94:46-56). The remaining 228 chemicals were designated as non-binders based on initial screening studies.
The DSSTox KIERBL data files include all published IC50 and Ki experimental results for the 50 chemicals included in the Main Citation (Laws et al., 2006) (denoted Group 1), as well as previously unpublished results for an additional 228 structually diverse TSCA chemicals for which no ER binding was observed (denoted Group 2. IC50 values were determined for 32 compounds in Group 1 as the concentration of a test chemical that inhibits the maximal specific binding of 0.33 nM radiolabeled (3H) 17-beta-estradiol (E2) to rat uterine cytosolic (RUC) estrogen receptor (ER) by 50%. Confirmation of binding status was accomplished by secondary analysis using Lineweaver-Burk plots and slope replots to determine true competitive inhibition and an experimental Ki value. Ki is the inhibition constant for the test chemical, i.e., the concentration of the test chemical that will bind to half the binding sites at equilibrium (displacing half of the probe-bound receptors), in the absence of radioligand or other competitors. Ki reported as Mean +/- Standard Error from n=2 experiments (see StandardError_Ki_n2) and is determined from Lineweaver-Burk plots over the tested dose range (TestedRange_microM). For more information see BindingCurve_Group and BindingCurve_Details. […]

Chain of Estrogen receptor (Rattus norvegicus) (P06211 whole entry, looked up): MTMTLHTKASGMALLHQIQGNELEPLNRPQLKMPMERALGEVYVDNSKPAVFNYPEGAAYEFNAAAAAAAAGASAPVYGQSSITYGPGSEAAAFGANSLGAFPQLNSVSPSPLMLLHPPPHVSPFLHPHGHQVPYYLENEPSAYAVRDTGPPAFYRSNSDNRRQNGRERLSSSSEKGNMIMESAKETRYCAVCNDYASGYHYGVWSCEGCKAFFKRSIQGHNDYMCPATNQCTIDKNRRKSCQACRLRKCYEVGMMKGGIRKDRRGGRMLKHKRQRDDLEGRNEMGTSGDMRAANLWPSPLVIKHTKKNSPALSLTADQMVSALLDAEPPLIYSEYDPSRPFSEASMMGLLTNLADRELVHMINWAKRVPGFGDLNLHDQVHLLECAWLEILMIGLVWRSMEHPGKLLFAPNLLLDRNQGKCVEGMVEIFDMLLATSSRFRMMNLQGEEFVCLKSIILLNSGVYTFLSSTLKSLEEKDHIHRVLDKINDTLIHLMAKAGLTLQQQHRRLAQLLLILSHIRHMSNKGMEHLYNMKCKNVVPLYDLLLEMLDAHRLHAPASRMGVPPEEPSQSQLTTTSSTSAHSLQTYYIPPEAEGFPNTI

`C1=CCCCC1` was tested, and the outcome was “inactive; none”.
With `Cc1cc(-n2nc3ccc(Cl)cc3n2)c(O)c(C(C)(C)C)c1` the outcome was “inactive; none”.
In the case of `C(=NC1CCCCC1)=NC1CCCCC1`, the outcome is reported as “inactive; none”.
For `Cc1cc(Cc2cc(C)cc(C(C)(C)C)c2O)c(O)c(C(C)(C)C)c1`, the outcome was “inactive; none”.
In the case of `CCOc1ccc2c(c1)C(C)=CC(C)(C)N2`, the outcome is reported as “inactive; none”.
`Fc1cccc(Cl)c1CCl` was tested, and the outcome was “inactive; none”.
With `O=C(OCc1ccccc1)C(=O)OCc1ccccc1` the outcome was “inactive; none”.
`ClC(Cl)C(Cl)Cl` was tested, and the outcome was “inactive; none”.
For `CC(C)(C)c1cc(-n2nc3ccc(Cl)cc3n2)c(O)c(C(C)(C)C)c1`, the outcome was “inactive; none”.
In the case of `O=C(Oc1cccc(O)c1)c1ccccc1`, the outcome is reported as “inactive; none”.
With `CC(C)COC(=O)CC(C(=O)OCC(C)C)S(=O)(=O)O` (stereo unspecified) the outcome was “inactive; none”.
For `COc1cc([N+](=O)[O-])ccc1N`, the outcome was “inactive; none”.
With `Cc1ccc([N+](=O)[O-])c(C)c1` the outcome was “inactive; none”.
In the case of `CCC(=O)O`, the outcome is reported as “inactive; none”.
`O=C(c1ccccc1)c1ccc(O)c(O)c1O` gave a Potency (TestedRange_microM: 10-100) of 103 µM.
In the case of `CC(C)(C)[Si](C)(C)Cl`, the outcome is reported as “inactive; none”.
